The values that follow come from US8158792B2, “Spiropiperidines for use as tryptase inhibitors” (Janssen Pharmaceutica N.V., priority 2007, dated 2012).

The assay has as its target human lung tryptase. In words: β-Tryptase In-Vitro Enzyme Assay. It is filed as biochemical. Conditions: human lung tryptase 1 nM, substrate H-D-HHT-Ala-Arg-pNa 500 μM, pH 7.4, room temperature. As to the method:
The β-tryptase assay was conducted with human lung tryptase (Cortex Biochem #CP3033) in an aqueous buffer (10 mM Tris, 10 mM Hepes, 150 mM NaCl, 0.1% PEG 8000, pH 7.4) using the chromogenic substrate H-D-HHT-Ala-Arg-pNa. […] Percent inhibition was calculated by comparing the initial reaction velocity of samples without inhibitor to those with inhibitor. The initial reaction velocities were analyzed using Microsoft Excel.
As for `NCc1ccc2c(c1)C1(CCN(C(=O)c3ccc(Oc4ccccc4)cc3)CC1)CO2` [Cpd 62, 1-(4-phenoxy-phenyl)carbonyl-5′-aminomethyl-spiro[piperidine-4,3′-(2H)-benzo[b]furan]], the midpoint of inhibition, the IC50, lay at 0.8 µM.

`COC(=O)CN1CC2(CCN(C(=O)c3ccc(C#Cc4ccccc4)o3)CC2)c2cc(CN)ccc21` [Cpd 343, 1-(5-phenylethynyl-furan-2-yl)carbonyl-1′-[(methoxycarbonyl)methyl]-5′-aminomethyl-spiro[piperidine-4,3′-(2H)-indole]] yielded an IC50 of 0.023 µM. Against the preceding compound, the IC50 is about 35-fold lower.

Turning to `NCc1ccc2c(c1)C1(CCN(C(=O)c3snnc3-c3ccccc3)CC1)CO2` [Cpd 217, 1-(4-phenyl-[1,2,3]thiadiazol-5-yl)carbonyl-5′-aminomethyl-spiro[piperidine-4,3′-(2H)-benzo[b]furan]], half-maximal inhibition (IC50) was put at 0.65 µM.

Compound `NCc1ccc2c(c1)C1(CCN(C(=O)C3c4ccccc4-c4ccccc43)CC1)CO2` [Cpd 289, 1-fluoren-9-ylcarbonyl-5′-aminomethyl-spiro[piperidine-4,3′-(2H)-benzo[b]furan]] returned an IC50 of 1.4 µM. This IC50 lies about 2.2-fold higher than the previous one.

The compound `NCc1ccc2c(c1)C1(CCN(C(=O)c3ccccc3)CC1)CO2` [Cpd 36, 1-phenylcarbonyl-5′-aminomethyl-spiro[piperidine-4,3′-(2H)-benzo[b]furan]] registered an IC50 of 0.82 µM.

Take `Cc1cc(OCc2ccc(C(=O)N3CCC4(CC3)COc3ccc(CN)cc34)o2)ccc1Cl` [Cpd 139, 1-[5-(3-methyl-4-chloro-phenoxymethyl)-furan-2-yl]carbonyl-5′-aminomethyl-spiro[piperidine-4,3′-(2H)-benzo[b]furan]]: inhibition was half-maximal at 0.087 µM (IC50).

Regarding `NCc1ccc2c(c1)C1(CCN(C(=O)c3cccc(SC(F)(F)F)c3)CC1)CO2` [Cpd 63, 1-(3-trifluoromethylthio-phenyl)carbonyl-5′-aminomethyl-spiro[piperidine-4,3′-(2H)-benzo[b]furan]], the IC50 stood at 0.041 µM. Against the preceding compound, the IC50 is about 2.1-fold lower.

`CSc1sc(C(=O)N2CCC3(CC2)COc2ccc(CN)cc23)c2c1C=CCC2` [Cpd 219, 1-(3-methylthio-7-hydro-6H-benzo[c]thien-1-yl)carbonyl-5′-aminomethyl-spiro[piperidine-4,3′-(2H)-benzo[b]furan]] displayed an IC50 of 0.0029 µM.

For `N=C(NN)c1ccc2c(c1)C1(CCN(C(=O)c3ccc(C#Cc4ccccc4)o3)CC1)CO2` [Cpd 307, 1-(5-phenylethynyl-furan-2-yl)carbonyl-5′-[hydrazino(imino)methyl]-spiro[piperidine-4,3′-(2H)-benzo[b]furan]], it took 0.06 µM to reach half-maximal inhibition (IC50).

For `NCc1ccc2c(c1)C1(CCN(C(=O)Cc3cccc(C(F)(F)F)c3)CC1)CO2` [Cpd 85, 1-(3-trifluoromethyl-benzyl)carbonyl-5′-aminomethyl-spiro[piperidine-4,3′-(2H)-benzo[b]furan]], the 50% inhibitory concentration (IC50) stood at 2.7 µM.

`NCc1ccc2c(c1)C1(CCN(C(=O)c3cc4ccccc4s3)CC1)CO2` [Cpd 110, 1-benzothien-2-ylcarbonyl-5′-aminomethyl-spiro[piperidine-4,3′-(2H)-benzo[b]furan]] had an IC50 of 0.037 µM. Compared with the last compound, the IC50 is about 73-fold lower.

In the case of `NCc1ccc2c(c1)C1(CCN(C(=O)c3sc(Cl)c(Cl)c3Cl)CC1)CO2` [Cpd 275, 1-(3,4,5-trichloro-thien-2-yl)carbonyl-5′-aminomethyl-spiro[piperidine-4,3′-(2H)-benzo[b]furan]], it took 0.022 µM to reach half-maximal inhibition (IC50). This IC50 is about 1.7-fold lower than that of the compound before.

In turn, `COC(=O)c1cccc(S(=O)(=O)N2CC3(CCN(C(=O)c4ccc(C#Cc5ccccc5)o4)CC3)c3cc(CN)ccc32)c1` [Cpd 344, 1-(5-phenylethynyl-furan-2-yl)carbonyl-1′-(3-methoxycarbonyl-phenyl)sulfonyl-5′-aminomethyl-spiro[piperidine-4,3′-(2H)-indole]] displayed an IC50 of 0.023 µM.

Compound `NCc1ccc2c(c1)C1(CCN(C(=O)C(c3ccccc3)c3ccccc3)CC1)CO2` [Cpd 290, 1-(1-oxo-2,2-diphenyl-ethyl)-5′-aminomethyl-spiro[piperidine-4,3′-(2H)-benzo[b]furan]] registered an IC50 of 0.16 µM.

Take `CN(C)c1cccc(C(=O)N2CCC3(CC2)COc2ccc(CN)cc23)c1` [Cpd 56, 1-(3-dimethylamino-phenyl)carbonyl-5′-aminomethyl-spiro[piperidine-4,3′-(2H)-benzo[b]furan]]: half-maximal inhibition (IC50) required 0.19 µM. The IC50 values of the last two compounds are within 1.5-fold of each other.

Compound `NCc1ccc2c(c1)C1(CCN(C(=O)c3sc(SCc4ccccc4)c4c3CCCC4=O)CC1)CO2` [Cpd 214, 1-(3-benzylthio-4-oxo-5,6,7-trihydro-4H-benzo[c]thien-1-yl)carbonyl-5′-aminomethyl-spiro[piperidine-4,3′-(2H)-benzo[b]furan]] had an IC50 of 0.0065 µM.

In turn, `NCc1ccc2c(c1)C1(CCN(C(=O)c3sc4cccc(Cl)c4c3Cl)CC1)CO2` [Cpd 175, 1-(3,4-dichloro-benzo[b]thien-2-yl)carbonyl-5′-aminomethyl-spiro[piperidine-4,3′-(2H)-benzo[b]furan]] yielded an IC50 of 0.058 µM.

Take `Cc1ccc(C(=O)N2CCC3(CC2)COc2ccc(CN)cc23)cc1C` [Cpd 24, 1-(3,4-dimethyl-phenyl)carbonyl-5′-aminomethyl-spiro[piperidine-4,3′-(2H)-benzo[b]furan]]: the midpoint of inhibition, the IC50, lay at 0.15 µM. Against the preceding compound, the IC50 is about 2.6-fold higher.

Regarding `NCc1ccc2c(c1)C1(CCN(C(=O)C3=CCc4ccccc43)CC1)CO2` [Cpd 286, 1-3H-inden-1-ylcarbonyl-5′-aminomethyl-spiro[piperidine-4,3′-(2H)-benzo[b]furan]], half-maximal inhibition (IC50) required 0.92 µM.

With `NCc1ccc2c(c1)C1(CCN(C(=O)c3ccc(Cl)cc3)CC1)CO2` [Cpd 44, 1-(4-chloro-phenyl)carbonyl-5′-aminomethyl-spiro[piperidine-4,3′-(2H)-benzo[b]furan]], the IC50 is 0.23 µM.

Take `CC(C)(C)c1cc(C(=O)N2CCC3(CC2)COc2ccc(CN)cc23)cc(C(C)(C)C)c1` [Cpd 133, 1-(3,5-di-tert-butyl-phenyl)carbonyl-5′-aminomethyl-spiro[piperidine-4,3′-(2H)-benzo[b]furan]]: the IC50 was 0.081 µM.

`NCc1ccc2c(c1)C1(CCN(C(=O)c3cccc(C(F)(F)F)c3)CC1)CO2` [Cpd 47, 1-(3-trifluoromethyl-phenyl)carbonyl-5′-aminomethyl-spiro[piperidine-4,3′-(2H)-benzo[b]furan]] gave an IC50 of 0.82 µM. This IC50 lies about 10-fold higher than the previous one.

`NCc1ccc2c(c1)C1(CCN(C(=O)c3cc4ccsc4s3)CC1)CO2` [Cpd 233, 1-thieno[2,3-b]thien-2-ylcarbonyl-5′-aminomethyl-spiro[piperidine-4,3′-(2H)-benzo[b]furan]]: the IC50 came out at 0.082 µM.

Take `Cc1ccccc1/C=C/C(=O)N1CCC2(CC1)COc1ccc(CN)cc12` [Cpd 191, (E)-1-(2-methyl-phenylethenyl)carbonyl-5′-aminomethyl-spiro[piperidine-4,3′-(2H)-benzo[b]furan]]: half-maximal inhibition (IC50) was put at 0.25 µM. This IC50 is about 3-fold higher than that of the compound before.

`Cc1ccc(C)c(C#Cc2ccc(C(=O)N3CCC4(CC3)COc3ccc(CN)cc34)o2)c1` [Cpd 172, 1-[5-(2,5-dimethyl-phenylethynyl)-furan-2-yl]carbonyl-5′-aminomethyl-spiro[piperidine-4,3′-(2H)-benzo[b]furan]] came in with an IC50 of 0.0072 µM.

Consider `CCC(C)Sc1sc(C(=O)N2CCC3(CC2)COc2ccc(CN)cc23)c2c1C(=O)CC(C)(C)C2` (centres unmarked) [Cpd 231, 1-(3-sec-butylthio-4-oxo-6,6-dimethyl-6,7-dihydro-5H-benzo[c]thien-1-yl)carbonyl-5′-aminomethyl-spiro[piperidine-4,3′-(2H)-benzo[b]furan]], for which the IC50 stood at 0.091 µM.

With `NCc1ccc2c(c1)C1(CCN(C(=O)c3cccc4c3Cc3ccccc3-4)CC1)CO2` [Cpd 269, 1-fluoren-1-ylcarbonyl-5′-aminomethyl-spiro[piperidine-4,3′-(2H)-benzo[b]furan]], the IC50 is 1 µM.

Compound `NCc1ccc2c(c1)C1(CCN(C(=O)/C=C/c3cccc(OC(F)(F)F)c3)CC1)CO2` [Cpd 167, (E)-1-(3-trifluoromethoxy-phenylethenyl)carbonyl-5′-aminomethyl-spiro[piperidine-4,3′-(2H)-benzo[b]furan]] had an IC50 of 0.6 µM.

`NCc1ccc2c(c1)C1(CCN(C(=O)c3cccc(C(=O)c4ccccc4)c3)CC1)CO2` [Cpd 4, 1-(3-benzoyl-phenyl)carbonyl-5′-aminomethyl-spiro[piperidine-4,3′-(2H)-benzo[b]furan]] returned an IC50 of 0.75 µM.

Compound `NCc1ccc2c(c1)C1(CCN(C(=O)c3ccc(OC(F)(F)F)cc3)CC1)CO2` [Cpd 61, 1-(4-trifluoromethoxy-phenyl)carbonyl-5′-aminomethyl-spiro[piperidine-4,3′-(2H)-benzo[b]furan]] registered an IC50 of 7.5 µM. Against the preceding compound, the IC50 is about 10-fold higher.

Consider `CC(C)(C)c1cccc(C(=O)N2CCC3(CC2)COc2ccc(CN)cc23)c1` [Cpd 274, 1-(3-tert-butyl-phenyl)carbonyl-5′-aminomethyl-spiro[piperidine-4,3′-(2H)-benzo[b]furan]], for which the IC50 was found to be 6.4 µM.

As for `NCc1ccc2c(c1)C1(CCN(C(=O)Cc3cccc(Br)c3)CC1)CO2` [Cpd 95, 1-(3-bromo-benzyl)carbonyl-5′-aminomethyl-spiro[piperidine-4,3′-(2H)-benzo[b]furan]], the IC50 was determined as 3.2 µM.

Consider `NCc1ccc2c(c1)C1(CCN(C(=O)c3ccc(Oc4cc(C(F)(F)F)cc(C(F)(F)F)c4)cc3)CC1)CO2` [Cpd 279, 1-[4-(3,5-bis-trifluoromethyl-phenoxy)-phenyl]carbonyl-5′-aminomethyl-spiro[piperidine-4,3′-(2H)-benzo[b]furan]], for which the IC50 amounted to 8 µM.

Consider `NCc1ccc2c(c1)C1(CCN(C(=O)/C=C/c3c(F)cccc3F)CC1)CO2` [Cpd 195, (E)-1-(2,6-difluoro-phenylethenyl)carbonyl-5′-aminomethyl-spiro[piperidine-4,3′-(2H)-benzo[b]furan]], for which it took 0.12 µM to reach half-maximal inhibition (IC50). This IC50 lies about 67-fold lower than the previous one.

In turn, `NCc1ccc2c(c1)C1(CCN(C(=O)/C(F)=C/c3ccccc3)CC1)CO2` [Cpd 162, (Z)-1-(1-fluoro-2-phenylethenyl)carbonyl-5′-aminomethyl-spiro[piperidine-4,3′-(2H)-benzo[b]furan]] returned an IC50 of 0.079 µM.

The IC50 is the concentration that gives 50% inhibition.
